The values below come from patent US20130217760A1, “METHOD FOR ENHANCING THERAPEUTIC EFFECT OF ANTICANCER THERAPIES” (BOTAMEDI INC., priority 2012, published 2013).

For data set [1], the system named is adriamycin-induced cardiomyopathy.
Description: The composition of the present invention was examined for suppression effects against adriamycin-induced cardiomyopathy.
A total of 25 male mice (33±5 g, four-week-old) were divided into four groups: three test groups of seven, and one control group of four. Adriamycin (tradename: Doxorubicin Hydrochloride; Sigma-Aldrich, Co, LLC; St. Louis, Mo., USA) in distilled water was intraperitoneally injected at a dose of 1.25 mg/kg once a week for six weeks in the adriamycin group. The other two experimental groups, low-dose and high-dose group, were orally administered with composition 4 at a dose of 32 mg/kg and 64 mg/kg, respectively, everyday for one week, and then intraperitoneally injected with adriamycin in distilled water at a dose of 1.25 mg/kg once a week for six weeks. The control group of 4 mice was injected once a week for six weeks with physiological saline. During the experiment, the mice were given access to food and water ad libitum.
The mice were generally anesthetized before and after the six-week experiment, and subjected to two-dimensional echocardiography using a 15-MHz transducer to measure left ventricular end-diastolic dimension (LVEDD) and left ventricular end-systolic dimension (LVESD), left ventricular end-diastolic posterior wall thickness (PW), and left ventricular end-systolic posterior wall thickness (PW). From these measurements, relative wall thickness (RWT), fraction shortening (FS), and left ventricular ejection fraction (LVEF) were calculated. The echocardiographic data are expressed as mean value±SD of five or higher independent measurements.
Data set [2] deals with Ovarian carcinoma cells (SKOV3). The data set can be described thus: Apoptosis by PI staining / FACS, co-treatment with Cisplatin. Particulars: Individual, 48 hrs. In kind it is cell-based. As for the experimental part:
Apoptotic effects were assessed using a PI staining method. Propidium iodide (PI) is a fluorescent molecule that can bind to DNA of dead cells to evaluate cell cycle and cell viability.
Ovarian carcinoma cells (SKOV3) were incubated at 37° C. for 24 hrs in minimum essential medium [MEM] supplemented with 10% FBS, 100 units/ml antibiotic antimycotic, and 2.2 g/L sodium bicarbonate in 96-well plates. The ovarian carcinoma cell line was seeded at a density of 1×10^4 cells/well into 96-well plates and allowed to adhere to the bottom during incubation for 24 hrs. […] Afterwards, the cells were washed with PBS, and detached with trypsin-EDTA, followed by centrifugation at 1,000 rpm for 10 min. The cells were fixed with 70% ethanol at 4° C. for 24 hrs. After removal of the ethanol, the cells were washed many times with PBS, suspended in PBS containing RNaseA, and reacted with a PI reagent for 10 min at room temperature in a dark condition.

Data set [3] has as its system ovarian carcinoma cell line SKOV3 tumors. Briefly: SKOV3 ovarian carcinoma xenograft, tumor volume and weight. The data set is classed as in vivo, Balb/c nu/nu mice. The method, then:
The ovarian carcinoma cell line SKOV3 was detached from a culture dish using trypsin-EDTA, and diluted to a density of […] cells/150 in an RPMI medium supplemented with 10% FBS, followed by subcutaneous injection into the right flank of Balb/c nu/nu mice using a syringe. […] The control group was treated with PBS. During the experimental period, the tumor size, body weight and dietary intake of mice in each group was recorded three times per week.
After 4 weeks, the animals were sacrificed and blood was taken from the animals. Tumors were e.xcised from the animals and measured for size and weight.

Data set [4] relates to SKOV3 ovarian carcinoma cell line. The data set can be described thus: Inhibition of cancer cell proliferation, MTT assay, SKOV3. In kind it is cell-based. The conditions noted are these: SKOV3, 24 hrs incubation. The method, then: (§1) Ovarian […] carcinoma cell lines (SKOV3, A2780) were incubated in minimum essential medium [MEM] supplemented with 10% FBS, 100 units/ml antibiotic antimycotic, and 2.2 g/L sodium bicarbonate at 37° C. for 24 hrs in 96-well plates. The ovarian carcinoma cell lines were seeded at a density of 1×10^4 cells/well into 96-well plates and allowed to adhere to the bottom during incubation for 24 hrs. […] The cells in each well were treated with […] of an MTT reagent (1 mg/ml) for 4 hrs in a dark condition. After the medium was aspirated, the MTT fromazan thus formed was dissolved in […] of DMSO, and absorbance was measured at 540 nm using spectrophotometer.

Data set [5] in a line: Dietary intake (anorexia) in SKOV3 tumor-bearing mice. The data set is classed as in vivo, Balb/c nu/nu mice. The conditions noted are these: for Diet Intake: Cisplatin group (cisplatin 3 mg/kg i.p.).
In data set [6] the test system is A2780 ovarian carcinoma cell line. Briefly: Inhibition of cancer cell proliferation, MTT assay, A2780. Particulars: A2780, 24 hrs incubation. The data set is classed as cell-based. As for the experimental part:
as §1

[7] abbreviates: Adriamycin Group, Week 0 (Baseline).

Structures can show the parent of a compound that is named as a salt. Where two headings read alike, the source gives them in different places.

For `COc1cccc2c1C(=O)c1c(O)c3c(c(O)c1C2=O)C[C@@](O)(C(=O)CO)C[C@@H]3O[C@H]1C[C@H](N)[C@H](O)[C@H](C)O1` [Adriamycin, Doxorubicin Hydrochloride], in data set [1] (setting [7]), the LVEDD stood at 5.7 ± 0.2 mm, the LVESD turned out to be 2.4 ± 0.3 mm and the PW was 1.6 ± 0.2 mm. In data set [1] (Adriamycin Group, Week 6), this compound had an FS of 44.2 ± 3.2%, an LVEF of 70.3 ± 0.3%, an LVESD of 3.8 ± 0.3 mm and a PW of 1.4 ± 0.3 mm. In addition, in data set [1] (Adriamycin Group, Δ(6 − 0)), the “FS Δ(6 − 0)” value came to 14.4 ± 1.5%, the “LVEDD Δ(6 − 0)” value was 1.1 ± 0.1 mm, the “LVEF Δ(6 − 0)” value amounted to 15.2 ± 3.0% and the “LVESD Δ(6 − 0)” value turned out to be 1.4 ± 0.0 mm. For the same compound, in data set [1] (Adriamycin Group, Δ(6 − 0)), the “PW Δ(6 − 0)” value came out at 0.2 ± 0.1 mm. Further, the “cardiomyopathy after 6 weeks” value in data set [1] (echocardiography after 6 weeks of study) is “cardiomyopathy with significant decrease in left ventricular posterior wall thickness (PW) and in fractional shortening (FS)”.
Consider `N.N.[Cl][Pt][Cl]` [Cisplatin, cis-Diammineplatinum (II) dichloride], for which the results for the “Apoptosis (%)” value in data set [2] (Cisplatin 3 μM) and in data set [2] (Cisplatin 5 μM) were 3.0% and 3.5%, respectively. In addition, the “tumor size compared to control” value in data set [3] (4 weeks administration) is on record as “slightly reduced”. Further, the “Tumor Weight after 4 Weeks” value in data set [3] (Cisplatin alone (3 mg/kg i.p.)) is 1.7 gram. The “Tumor Volume” value in data set [3] (Cisplatin alone (3 mg/kg i.p.), Week 1) came to 100 mm3; in data set [3] (Cisplatin alone (3 mg/kg i.p.), Week 2), 134 mm3; in data set [3] (Cisplatin alone (3 mg/kg i.p.), Week 3), 144 mm3; in data set [3] (Cisplatin alone (3 mg/kg i.p.), Week 4), 162 mm3. In data set [4], the IC50 SKOV3 was determined as 12.3 µg/mL. Further, the “Diet Intake” value in data set [5] (Week 0) amounted to 4.8 gram; in data set [5] (Week 1), 4.6 gram; in data set [5] (Week 2) it was 4.0 gram; in data set [5] (Week 3), 3.7 gram; in data set [5] (Week 4) it was 4.1 gram. Also, in data set [5] (during the experimental periods), the “dietary intake compared to control group” value was “decrease in dietary intake”. In data set [6], this compound displayed an IC50 A2780 of 6.01 µg/mL.
